Experimental data as given in publication PMC6792352, “Limited Chemical Structural Diversity Found to Modulate Thyroid Hormone Receptor in the Tox21 Chemical Library” (Environmental Health Perspectives, 2019).
Structures can show the parent of a compound that is named as a salt.

Test: in vitro
Conditions: rat, gh3-tre-luc cells, AC50 (uM) modified / 1000

SMILES	CC50 at 24 h [µM]
CCN[C@H]1C[C@H](C)S(=O)(=O)c2sc(S(N)(=O)=O)cc21 [Dorzolamide hydrochloride]	> 50
Nc1ccc(O)c(C(=O)O)c1 [5-Aminosalicylic acid]	> 50
CCN(CC)c1ccc(N=Nc2ccc(S(=O)(=O)N(C)C)cc2)c(S(=O)(=O)NCC[n+]2ccccc2)c1 [1-[2-({[5-Diethylamino)-2-{[4-(dimethylsulfamoyl)phenyl]diazenyl}phenyl]sulfonyl}amino)ethyl]pyridinium chloride]	> 50
NNC(=O)CP(=O)(c1ccccc1)c1ccccc1 [Fosenazide]	> 50
CCCO[Si](OCCC)(OCCC)OCCC [Tetrapropyl orthosilicate]	> 90
CN(C)CCC=C1c2ccccc2COc2ccccc21 [Doxepin hydrochloride]	13.5
CCO/C=C1\N=C(c2ccccc2)OC1=O [Oxazolone]	64.5
CSc1nc(NC(C)C)nc(NC(C)C)n1 [Prometryn]	> 90
CC[C@H]1OC(=O)C[C@@H](O)[C@H](C)[C@@H](O[C@@H]2O[C@H](C)[C@@H](O[C@H]3C[C@@](C)(O)[C@@H](O)[C@H](C)O3)[C@H](N(C)C)[C@H]2O)[C@@H](CC=O)C[C@@H](C)C(=O)/C=C/C(C)=C/[C@@H]1CO[C@@H]1O[C@H](C)[C@@H](O)[C@@H](OC)[C@H]1OC [Tylosin tartrate]	> 50
C[N+](C)(CCOc1ccccc1)Cc1cccs1 [Dimethyl(2-phenoxyethyl)-2-thenylammonium iodide]	> 50
CO[Si](CCCCl)(OC)OC [(3-Chloropropyl)trimethoxysilane]	> 90
O=C(c1ccccc1)C1CCC1 [Cyclobutyl phenyl ketone]	> 90
Cc1ncc(CSSCc2cnc(C)c(O)c2CO)c(CO)c1O [Pyrithioxin dihydrochloride]	> 50
Brc1cc(-c2ccc(Br)c(Br)c2Br)cc(Br)c1Br [Polybrominated biphenyls (PBB)]	> 50
Clc1cc(Cl)nc(Cl)n1 [2,4,6-Trichloropyrimidine]	> 90
COc1cccc2c1[C@@H]1CN(CCCCn3c(=O)[nH]c4c(sc5ncc(-c6ccccc6)nc54)c3=O)C[C@@H]1CO2 [Fiduxosin hydrochloride]	13.1
C=C1CC[C@H](O)C/C1=C/C=C1\CCC[C@]2(C)[C@@H]([C@H](C)CCCC(C)(C)O)CC[C@@H]12 [Calcifediol]	11.5
CC(=O)Nc1ccc(N)cc1 [4-Aminoacetanilide]	> 90
C=C(C)[C@H]1CC=C(C)CC1 [D-Limonene]	> 90
CC(C)(Oc1ccc(C2CCCc3ccccc32)cc1)C(=O)O (stereo not drawn) [Nafenopin]	> 50
NC(N)=S [Thiourea]	> 90

SMILES	CC50 at 24 h [µM]
CC(C)c1ccc2oc3nc(N)c(C(=O)O)cc3c(=O)c2c1 [Amlenanox]	> 50
O=C1CCCCCO1 [Caprolactone]	> 90
c1ccc(-c2nnn[nH]2)cc1 [5-Phenyl-1H-tetrazole]	> 90
COc1ccc(OC)c(Cl)c1 [2-Chloro-1,4-dimethoxybenzene]	> 90
Cc1cc(Nc2ccc(O)cc2)ccc1N [4-Amino-4'-hydroxy-3-methyldiphenylamine]	11.4
O=Cc1ccccc1[N+](=O)[O-] [2-Nitrobenzaldehyde]	> 90
SCCSCCS [2,2'-Sulfanediyldiethanethiol]	> 90
COc1nc(C)nc(Cl)c1N=C1NCCN1 [Moxonidine]	> 20
CC(C)c1ccccc1C(C)C [Diisopropylbenzene]	88.9
CCCCc1ccc(N)cc1 [4-Butylaniline]	> 90
CCCCCCCCCCCCCCCC(=O)OC[C@@H](O)[C@H]1OC[C@H](O)[C@H]1O [Sorbitan monohexadecanoate]	> 50
N=C(N)n1cccn1 [Praxadine hydrochloride]	> 50
CC(C)N(C)C [Dimethylisopropylamine]	> 90
O=C(O)c1ccc(S(=O)(=O)O)cc1C(=O)O [4-Sulfophthalic acid]	> 90
CCNC1(c2cccs2)CCCCC1=O (stereo not drawn) [Tiletamine hydrochloride]	> 20
Nc1c(S(=O)(=O)O)cc(Br)c2c1C(=O)c1ccccc1C2=O [Bromamine acid sodium salt]	38.3
CC(C)(C#N)Nc1nc(Cl)nc(NC2CC2)n1 [Procyazine]	> 90
CCCCCCCCCCCCCOP(=O)(O)O [Monotridecyl phosphate]	> 90
CCCC(=O)OC(=O)CCC [Butanoic anhydride]	> 90
N[C@@H](C=O)[C@@H](O)[C@@H](O)[C@H](O)CO [Galactosamine hydrochloride]	> 90
Cc1ccc2ncccc2c1 [6-Methylquinoline]	> 90

SMILES	CC50 at 24 h [µM]
CC(C)(O)c1ccc(CNC(=O)c2cccnc2Oc2ccc(F)cc2)cc1 [CP-457677]	> 90
BrCC(Br)(Br)Br [1,1,1,2-Tetrabromoethane]	> 90
CC(Cl)C(=O)O (stereo not drawn) [2-Chloropropanoic acid]	> 100
ClCCOCCCl [Bis(2-chloroethyl) ether]	> 90
O=c1cc[nH]c(=O)[nH]1 [Uracil]	> 90
CC(C)CN(C[C@@H](O)[C@H](Cc1ccccc1)NC(=O)O[C@H]1CCOC1)S(=O)(=O)c1ccc(N)cc1 [Amprenavir]	> 50
Oc1cc2c(cc1O)[C@@H]1c3ccc(O)c(O)c3OC[C@]1(O)C2 [Hematoxylin]	69.9
COc1ccccc1N1CCN(CCCNc2cc(=O)n(C)c(=O)n2C)CC1 [Urapidil]	> 50
Clc1nnc(Cl)c2ccccc12 [1,4-Dichlorophthalazine]	> 90
N#Cc1ccccc1 [Benzonitrile]	> 90
Nc1c(Cl)cc([N+](=O)[O-])cc1Cl [Dicloran]	> 90
OCC(CO)N[C@H]1C[C@](O)(CO)[C@@H](O)[C@H](O)[C@H]1O [Voglibose]	> 50
O=C(O)CN1C(=O)c2cccc3cccc(c23)C1=O [Alrestatin]	> 50
Nc1ccc(Cl)cc1Cl [2,4-Dichloroaniline]	> 90
CCCCCCCCCCCCCCCCCCOS(=O)(=O)O [Octadecyl sulfate sodium salt]	53.1
Cc1nc2n(c(=O)c1CCN1CCC(c3noc4cc(F)ccc34)CC1)CCCC2O (stereo not drawn) [Paliperidone]	> 50
Cc1cc(C)nc(NS(=O)(=O)c2ccc(N)cc2)n1 [Sulfamethazine]	> 90
Cc1ccccc1-n1c(C)nc2ccccc2c1=O [Methaqualone]	> 50
CCOC(=O)CC(C(C)=O)C(C)=O [Ethyl 3-acetyl-4-oxopentanoate]	> 90

Same assay, conditions: rat, gh3-tre-luc cells, AC50 (uM) modified / 1000, Tox21_110001=Tox21_200517; viability, 1 nM T3 present, 24 h

SMILES	CC50 at 24 h [µM]
Cc1ccc(N)cc1 [4-Methylaniline hydrochloride]	> 90

Same assay, conditions: rat, gh3-tre-luc cells, AC50 (uM) modified / 1000, Tox21_110001=Tox21_201788; viability, 1 nM T3 present, 24 h

SMILES	CC50 at 24 h [µM]
CC(C#N)CCC#N (stereo not drawn) [2-Methylpentanedinitrile]	> 90

Same assay, conditions: rat, gh3-tre-luc cells, AC50 (uM) modified / 1000, Tox21_110001=Tox21_300043; viability, 1 nM T3 present, 24 h

SMILES	CC50 at 24 h [µM]
OCCCl [2-Chloroethanol]	> 90

Same assay, conditions: rat, gh3-tre-luc cells, AC50 (uM) modified / 1000, Tox21_110001=Tox21_400056; viability, 1 nM T3 present, 24 h

SMILES	CC50 at 24 h [µM]
O=[N+]([O-])c1cc([N+](=O)[O-])c2ccccc2c1 [1,3-Dinitronaphthalene]	> 90

Same assay, conditions: rat, gh3-tre-luc cells, AC50 (uM) modified / 1000, Tox21_110001=Tox21_400083; viability, 1 nM T3 present, 24 h

SMILES	CC50 at 24 h [µM]
O=S(=O)(O)C(F)(F)C(F)(F)C(F)(F)C(F)(F)C(F)(F)C(F)(F)C(F)(F)C(F)(F)F [Perfluorooctanesulfonic acid]	> 90
